In patent US6569834B1, “Elucidation and synthesis of antineoplastic tetrapeptide w-aminoalkyl-amides” (priority 1992, dated 2003):
Values after ≈ are worked out from the molar mass of the structure shown.

Experiments:
Assay type in all cases: cell-based
[1] = system: A498; test: Human cancer cell growth inhibition, renal A498
Text: (§1) Only two hundred years ago, many diseases ravaged humankind. Many of these diseases have been controlled or eradicated. In the development of the means to treat or control these diseases, work with the appropriate common experimental animals was of critical importance. With the various types of cancers, and with the HIV virus, such work is presently ongoing. The research for the treatment of various types of cancer is coordinated by the National Cancer Institute (NCI). NCI, as a government entity, has been charged with assisting anti-cancer research. To establish whether a substance has anti cancer activity, NCI has established a protocol. This protocol, which involves testing a substance against a cell line panel containing 60 human tumor cell lines, has been verified, and is accepted in scientific circles. This protocol, and the established statistical means of evaluating the results obtained therefrom have been amply described in the literature. See e.g. Principles & Practice of Oncology PPO Updates, Volume 3, Number 10, October 1989, by Michael R. Boyd, M. D., Ph.D., for a description of the protocol. The statistical analysis is explained in “Display and Analysis of Patterns of Differential Activity of Drugs Against Human Tumor Cell Lines: Development of Mean Graph and COMPARE Algorithm” Journal of the National Cancer Institute Reports Vol. 81, No. 14, Pg. 1088, July 14, 1989, by K. D. Paull et al. Both articles are incorporated herein by this reference as if fully set forth.
(§2) The extraordinary inhibition of cell growth shown by the tetrapeptide w-aminoalkylamides 6a-d against six major types of human cancer and against the murine P388 lymphocytic leukemia cell line has been presented in Table I.

[2] = system: P-388; test: Cancer cell growth inhibition, murine P388 lymphocytic leukemia cell line; set-up: unit not given here; conditions: Mouse leukemia cell P-388
Text: as §2

[3] = system: SK-MEL-3; test: Human cancer cell growth inhibition, melanoma SK-MEL-3
Text: as §1, §2

[4] = system: OVCAR-3; test: Human cancer cell growth inhibition, ovarian OVCAR-3
Text: as §1, §2

[5] = system: KM20L2; test: Human cancer cell growth inhibition, colon KM20L2
Text: as §1, §2

[6] = system: SF-295; test: Human cancer cell growth inhibition, CNS SF-295
Text: as §1, §2

[7] = system: NCI-460; test: Human cancer cell growth inhibition, Lung-NSC NCI-460
Text: as §1, §2

[8] = system: human cancer cell line; test: Human cancer cell line activity compared to dolastatin 10

| Compound | GI-50 [1] [µg/mL] | TGI [1] [ng/mL] | Cancer cell growth inhibitory activity [2] | GI-50 [3] [µg/mL] | TGI [3] [ng/mL] | GI-50 [4] [µg/mL] | TGI [4] [ng/mL] | GI-50 [5] [µg/mL] | TGI [5] [ng/mL] | GI-50 [6] [µg/mL] | TGI [6] [ng/mL] | GI-50 [7] [µg/mL] | TGI [7] [ng/mL] | human cancer cell line activity as compared to dolastatin 10 [8] |
| --- | --- | --- | --- | --- | --- | --- | --- | --- | --- | --- | --- | --- | --- | --- |
| CC[C@H](C)[C@@H]([C@@H](CC(=O)N1CCC[C@H]1[C@H](OC)[C@@H](C)C(=O)NCCN1CCOCC1)OC)N(C)C(=O)[C@@H](NC(=O)[C@H](C(C)C)N(C)C)C(C)C [Peptide 6b, [2S-[1[1R*(R*),2S*],2R*[1S*,2S*]]]-N,N-dimethyl-L-valyl-N-[2-methoxy-4-[2-[1-methoxy-2-methyl-3-oxo-3-[[2-(4-morpholino)ethyl]amino]propyl]-1-pyrrolidinyl-1-(methylpropyl)-4-oxobutyl]-N-methyl-L-valineamide] | <0.0001 | <0.1 | 0.0736 | <0.0001 | <0.1 | <0.0001 | <0.1 | <0.0001 | <0.1 | <0.0001 | <0.1 | <0.0001 | <0.1 | – |
| R-Doe-isodolastatin 10 | – | – | – | – | – | – | – | – | – | – | – | – | – | did not show any significant difference |
| CC[C@H](C)[C@@H]([C@@H](CC(=O)N1CCC[C@H]1[C@H](OC)[C@@H](C)C(=O)NCCCN(C)C)OC)N(C)C(=O)[C@@H](NC(=O)[C@H](C(C)C)N(C)C)C(C)C [Peptide 6d, [2S-[1[1R*(R*),2S*],2R*[1S*,2S*]]]-N,N-dimethyl-L-valyl-N-[2-methoxy-4-[2-[1-methoxy-2-methyl-3-oxo-3-[[3-dimethylamino-propyl]amino]propyl]-1-pyrrolidinyl-1-(methylpropyl)-4-oxobutyl]-N-methyl-L-valineamide] | <0.01 | <10 | 0.881 | <0.01 | <10 | <0.01 | <10 | <0.01 | <10 | <0.01 | <10 | 0.0072 | <10 | – |
| CC[C@H](C)[C@@H]([C@@H](CC(=O)N1CCC[C@H]1[C@H](OC)[C@@H](C)C(=O)NCCc1ccccn1)OC)N(C)C(=O)[C@@H](NC(=O)[C@H](C(C)C)N(C)C)C(C)C [Peptide 6a, [2S-[1[1R*(R*),2S*],2R*[1S*,2S*]]]-N,N-dimethyl-L-valyl-N-[2-methoxy-4-[2-[1-methoxy-2-methyl-3-oxo-3-[[2-(2-pyridyl)ethyl]amino]propyl]-1-pyrrolidinyl-1-(methylpropyl)-4-oxobutyl]-N-methyl-L-valineamide] | 0.00043 | <10 | 0.000713 | 0.000065 | 0.77 (≈ 0.0011 µM) | 0.000039 | 0.21 (≈ 0.000299 µM) | 0.000062 | 1.1 (≈ 0.00156 µM) | 0.00035 | <10 | 0.00024 | 0.8 (≈ 0.00114 µM) | – |
| CC[C@H](C)[C@@H]([C@@H](CC(=O)N1CCC[C@H]1[C@H](OC)[C@@H](C)C(=O)NCCN(C)C)OC)N(C)C(=O)[C@@H](NC(=O)[C@H](C(C)C)N(C)C)C(C)C [Peptide 6c, [2S-[1[1R*(R*),2S*],2R*[1S*,2S*]]]-N,N-dimethyl-L-valyl-N-[2-methoxy-4-[2-[1-methoxy-2-methyl-3-oxo-3-[[2-dimethylamino-ethyl]amino]propyl]-1-pyrrolidinyl-1-(methylpropyl)-4-oxobutyl]-N-methyl-L-valineamide] | 0.0025 | 5.6 (≈ 0.00837 µM) | <0.1 | <0.01 | <10 | 0.0028 | 8.6 (≈ 0.0129 µM) | <0.01 | <10 | 0.0033 | <10 | 0.0051 | <10 | – |
